Three molecules from patent US20030143228A1, “Human telomerase reverse transcriptase as a class-II restricted tumor-associated antigen” (Baylor College of Medicine, priority 2001, published 2003) can be followed below.

“Also recorded” adds a separate entry of the source.

What all share (format): cell-based, human
The test system of one data set is HLA-DR7+/hTRT+ LCL cells. Briefly: T-cell direct responses to hTRT-positive cells. As to the method:
The T-cells (5×10^3/well) were co-cultured with the irradiated HLA-DR7+/hTRT+ LCL cells (1×10^4/well) in the presence or absence of the anti-HLA-DR antibody (20 μg/ml). IFN-γ production of the T-cells was monitored by ELISPOT assay and cell proliferation was measured by [^3H]-thymidine incorporation compared with anti-DR sample.

Data set [1] has as its system Donor's peripheral blood mononuclear cells (PBMCs). The experiment in a line: Peptide T-cell proliferation assay with donor PBMC. Particulars: peptide 20 μg/ml; positive if cpm at least 2.5 times PBMC without peptide. As to the method:
Donor's peripheral blood mononuclear cells (PBMCs) were plated in 96-well plates (Costar) at 200,000 cells/well in AIM-V media (Gibco). Peptides were added into each well at the concentration of 20 μg/ml. After a week of incubation, the culture medium was removed and cells were resuspended in AIM-V media, seeded onto test plates and re-stimulated with autologous irradiated (2,000-6,000 rads) PBMC pulsed with the same peptides used in the primary stimulation (20 μg/ml). On day 2 of the re-stimulation, [^3H]-thymidine (1 uCi/well) was added to the test plates, and its incorporation by T-cells was measured on day 3. […] T-cell clones were established from positive T-cell lines by limiting dilution.
Because Th cells generally prefer to recognize peptides of about 15 residues in length, ten predicted peptides corresponding to promiscuous binding motifs of 15 mer or longer were synthesized and purified (Table 2). Human T-cell responses to these peptides were assessed by isolating PBMC from HLA-typed healthy donors with HLA-DR1, DR3, DR15, or other alleles and seeding them into 96-well plates that were subsequently stimulated with each peptide. After a week of stimulation, the cultures were tested for their capacity to respond to the peptides presented by autologous PBMC.

For another data set, the system named is recombinant hTRT protein. Briefly: T-cell recognition of natively processed hTRT protein presented by autologous DC. The source says:
A recombinant hTRT protein and an irrelevant Neu protein were produced and used to pulse PBMC-derived DC. Recombinant hTRT and Neu(extracellular domain)-Fc fusion proteins, were produced in SF9 insect cells by use of a baculovirus expression system (Gibco), purified by affinity binding to Protein A (Sigma), and tested by Western blot analysis with anti-hTRT (Santa Cruz) or anti-Neu (Oncogene) antibodies, respectively.
The T916-specific T-cells, T631-specific T-cells or T672-specific T-cells (2×10^4/well) were stimulated with irradiated autologous PBMC-derived DC (Zhou et al., 1996) (2×10^3/well) pulsed with recombinant hTRT-Fc proteins (1 μg/ml) in the presence or absence of anti-HLA-DR antibodies (20 μg/ml). The T-cell clones were also stimulated with DC pulsed with irrelevant recombinant Neu-Fc proteins (1 μg/ml). Recombinant hTRT Fc fusion proteins and Neu (extracellular domain)-Fc proteins were produced from […], purified with a Protein-A purification kit (Pierce), and confirmed by Western blot analysis with anti-hTRT (Santa Cruz) or anti-Neu (Oncogene) antibodies. 48 hr later, [^3H]-thymidine incorporation of the T-cells was then measured.
The ability of these T-cell clones to recognize naturally processed antigen in the form of recombinant hTRT protein was tested in experiments in which autologous PBMC or DC were used as APC and recombinant hTRT proteins as a source of antigen (FIG. 16).

The test system of data set [2] is peptide-specific CD4+ T-cell clones. Briefly: Peptide titration of T-cell clones. Particulars: autologous PBMCs. The method, then: To evaluate the avidity of hTRT916 and hTRT672 T-cell clones for their ligands, peptide titration curves were generated with autologous PBMCs. The maximal cell proliferation of the hTRT916 T-cell clone was obtained at a peptide concentration of 10 μg/ml, compared with only at a peptide concentration of 1 μg/ml for the hTRT672 T-cell clone (FIG. 7).
Yet further, the avidity of the hTRT631 T-cell clone for its ligand was also evaluated. Peptide titration curves were generated with autologous PBMCs. The half maximal cell proliferation of the hTRT631 T-cell clone was obtained at a peptide concentration of 0.1 μg/ml (FIG. 8).
The effectiveness of antitumor immunotherapy based on CD8+ and CD4+ T-cells depends on the ability of the latter to recognize naturally processed antigen presented by APC. This property depends in turn on correct processing of the epitope in the MHC class II pathway and the avidity of the epitope for its MHC/TCR-complex (Kobayashi, 2000). To determine whether the newly identified peptides were naturally processed antigens, the avidity of the specific T-cell clones for their ligands was evaluated. Peptide titration curves were generated with autologous DC as APC. For peptides hTRT631, hTRT766, hTRT787, the peptide concentrations required to obtain half of the maximal proliferation exceeded 1.0 μM (FIG. 15A-FIG. 15F).

Data set [3] shares this test system. The experiment in a line: Specificity and MHC restriction of peptide-specific T-cell clones (antibody blocking). The method, then: The T916-positive T-cell clone, T631-positive T-cell or T672-positive T-cell (2×10^4 cells/well) were re-stimulated with autologous PBMC-derived DC (1×10^3/well) (Zhou et al., 1996) pulsed with T916, T631, T672 or irrelevant 15-mer peptides derived from HER-2 (SEQ.ID.NO.78, LSTDVGSCTLVCPLH) and EBV (SEQ.ID.NO.79, AYFMVFLQTHIFAEV) at the same concentration of 20 μg/ml in the presence of anti-HLA-DR (G46.4), anti-HLA-ABC (class I, G46.2.6), anti-CD4, or anti-CD8 (20 μg/ml, BD PharMingen). 48-72 hr later, GM-CSF release and [^3H]-thymidine incorporation of the T-cells were measured.
Further, antibody blocking assays were used to test whether the T-cell responses to peptides were MHC class II-restricted. […] Flow cytometric analysis of the responses to T-cell clones (FIG. 14A-FIG. 14F) confirmed clones were CD4-positive and CD 8-negative.

The next data set concerns T-cell clone. Briefly: Flow cytometric analysis of T-cell clones. Particulars: peptide-specific T-cell clone, anti-CD4-FITC / CD8-PE staining. The text has this: The T-cell clone was double-stained with anti-human CD4-FITC and CD8-PE antibodies or isotype controls (mouse IgG-FITC and IgG-PE) (BD PharMingen). The cells were then examined by flow cytometric analysis (Chen et al., 1997). More than 99% of the T-cell population were CD4-positive. Flow cytometric analysis verified that the T-cell clones were exclusively CD4-positive (FIG. 9A and FIG. 9B). Similar results were obtained from four different T916-specific T-cell clones. Taken together, the findings indicate that HLA-DR7-restricted epitopes reside in clones 8 and 35 and induce hTRT-specific human CD4+ T-cell responses.
A general note: Flow cytometry measures light scatter and fluorescence of single cells or particles in a stream.

The subject of data set [4] is T-cells primed by the pool 5-transduced DC. Briefly: DC-based immunogenetic screening of tumor retrogen library, [3H]-thymidine incorporation. Particulars: T-cells 2×10^5, DC 2×10^4. As to the method:
cDNA from the mRNA of prostate tumor cells (DU145) were generated by cDNA synthesis kits (CLONTECH). cDNA with sizes of 400 bp or higher were digested with Sau3A I (Bio-Lab) after fractionation with SizeSep™ 400 columns (Amersham Pharmacia Biotech) and inserted into the BamH I-cut pSBFc-DS. Ligated DNA was then transformed into E. coli, and library quality was confirmed by examining dozens of individual clones with different insert sizes and DNA sequences. Individual colonies were then cultured individually and pooled for the isolation of plasmid DNA. Recombinant retroviral retrogen vectors (pools) were generated by transfection of the plasmid DNA pools into packaging cells with GeneJammer (Stratagene). Two or three days later, the culture medium containing the retroviral vectors was harvested, filtered, and then used for DC transduction or stored at −80° C.
DC-based immunogenetic screening approach was used to identify unknown class II-restricted TAA from a tumor retrogen library.
After several rounds of screening of 12,000 individual clones in the library, two sub-pools (5-VI-C and -D) containing genes capable of stimulating CD4+ T-cells were identified. The 40 individual clones in the sub-pools 5-VI-C and -D were individually transduced into autologous CD34+-derived DC. […]

Take GTAFVQMPAHGLFPW [Peptide T916]: the “response of peptide-specific CD4+ T-cells to hTRT+/DR7+ LCL” value in the data set on HLA-DR7+/hTRT+ LCL cells (IFN-γ ELISPOT and [3H]-thymidine incorporation) was “active proliferation and production of INF-γ”. The “effect of anti-HLA-DR antibody on T-cell response to hTRT+/DR7+ LCL” value in the data set with HLA-DR7+/hTRT+ LCL cells (antibody 20 μg/ml) was “drastically inhibited”. Also, the “response of peptide-specific CD4+ T-cells to hTRT+ LCL (DR3+)” value in the data set on HLA-DR7+/hTRT+ LCL cells (different class II genotype) is reported as “did not respond”. The “proliferative T-cell responses from the donors' T-cells” value in data set [1] was “elicited proliferative T-cell responses”. The “epitope classification (naturally processed or cryptic)” value in the data set with recombinant hTRT protein was “are processed”. In addition, the “response of peptide-specific T-cells to irrelevant Neu protein presented by autologous DC” value in the data set on recombinant hTRT protein (Neu-Fc 1 μg/ml) is reported as “did not respond”. For the same molecule, in the data set on recombinant hTRT protein (peptide-specific T-cell clone, DC or PBMC pulsed with recombinant hTRT protein), the “recognition of hTRT protein after processing and presentation by autologous APC” value is recorded as “recognize the hTRT proteins”. Besides, in data set [2], the “peptide concentration at maximal cell proliferation of the T-cell clone” value was 10 µg/mL. Also, in data set [3], the “response of T-cells to autologous PBMC pulsed with peptide” value was “dosage-dependent manner”. Besides, the “response of the peptide-specific T-cells to irrelevant peptides” value in data set [3] (irrelevant 15-mer peptides (HER-2, EBV/EBNA1) or non-corresponding hTRT peptides, 20 μg/ml) is on record as “did not respond”. Also, the “restriction of T-cell response (antibody blocking)” value in data set [3] (peptide-pulsed autologous APC with anti-HLA-DR, anti-HLA class I, anti-HLA-DQ, anti-CD4 or anti-CD8 antibodies) was “both CD4- and HLA-DR-restricted; also recorded: MHC-II restricted epitopes”. The “T-cell population CD4-positive” value in the data set on T-cell clone is “More than 99%”.

B1: clone 8: positive clone of the DU145 tumor retrogen library; ORF encodes a 291 aa hTRT polypeptide (SEQ.ID.NO.3) (nucleic acid)
DNA: ATCCTGGCCAAGTTCCTGCACTGGCTGATGAGTGTGTACGTCGTCGAGCTGCTCAGGTCTTTCTTTTATGTCACGGAGACCACGTTTCAAAAGAACAGGCTCTTTTTCTACCGGAAGAGTGTCTGGAGCAAGTTGCAAAGCATTGGAATCAGACAGCACTTGAAGAGGGTGCAGCTGCGGGAGCTGTCGGAAGCAGAGGTCAGGCAGCATCGGGAAGCCAGGCCCGCCCTGCTGACGTCCAGACTCCGCTTCATCCCCAAGCCTGACGGGCTGCGGCCGATTGTGAACATGGACTACGTCGTGGGAGCCAGAACGTTCCGCAGAGAAAAGAGGGCCGAGCGTCTCACCTCGAGGGTGAAGGCACTGTTCAGCGTGCTCAACTACGAGCGGGCGCGGCGCCCCGGCCTCCTGGGCGCCTCTGTGCTGGGCCTGGACGATATCCACAGGGCCTGGCGCACCTTCGTGCTGCGTGTGCGGGCCCAGGACCCGCCGCCTGAGCTGTACTTTGTCAAGGTGGATGTGACGGGCGCGTACGACACCATCCCCCAGGACAGGCTCACGGAGGTCATCGCCAGCATCATCAAACCCCAGAACACGTACTGCGTGCGTCGGTATGCCGTGGTCCAGAAGGCCGCCCATGGGCACGTCCGCAAGGCCTTCAAGAGCCACGTCTCTACCTTGACAGACCTCCAGCCGTACATGCGACAGTTCGTGGCTCACCTGCAGGAGACCAGCCCGCTGAGGGATGCCGTCGTCATCGAGCAGAGCTCCTCCCTGAATGAGGCCAGCAGTGGCCTCTTCGACGTCTTCCTACGCTTCATGTGCCACCACGCCGTGCGCATCAGGGGCAAGTCCTACGTCCAGTGCCAGGGG
modifications: Human
Turning to B1, in data set [4], the “T-cell response to autologous DC transduced with individual clones” value is “strong T-cell response”.

B2: clone 35: positive clone of the DU145 tumor retrogen library; ORF encodes a 171 aa hTRT polypeptide (SEQ.ID.NO.4) (nucleic acid)
DNA: ATCCCGCAGGGCTCCATCCTCTCCACGCTGCTCTGCAGCCTGTGCTACGGCGACATGGAGAACAAGCTGTTTGCGGGGATTCGGCGGGACGGGCTGCTCCTGCGTTTGGTGGATGATTTCTTGTTGGTGACACCTCACCTCACCCACGCGAAAACCTTCCTCAGGACCCTGGTCCGAGGTGTCCCTGAGTATGGCTGCGTGGTGAACTTGCGGAAGACAGTGGTGAACTTCCCTGTAGAAGACGAGGCCCTGGGTGGCACGGCTTTTGTTCAGATGCCGGCCCACGGCCTATTCCCCTGGTGCGGCCTGCTGCTGGATACCCGGACCCTGGAGGTGCAGAGCGACTACTCCAGCTATGCCCGGACCTCCATCAGAGCCAGTCTCACCTTCAACCGCGGCTTCAAGGCTGGGAGGAACATGCGTCGCAAACTCTTTGGGGTCTTGCGGCTGAAGTGTCACAGCCTGTTTCTGGATTTGCAGGTGAACAGCCTCCAGACGGTGTGCACCAACATCTACAAG
modifications: Human
For the molecule B2, in data set [4], the “T-cell response to autologous DC transduced with individual clones” value is on record as “strong T-cell response”.
